This note sets out measurements from the supplement of paper PMC10290057.

Where a name gives a salt, the structure may show the parent alone.

The test system of assay [1] is HCT116. Put plainly: efficacy (fitted maximal change in viability relative to DMSO control); higher = less cytotoxic (negative = loss of viability). Conditions: 48 h.
Assay [2] concerns HCT116. Briefly: AC50 cell viability (CellTiter-Glo); higher = less potent. The following applies: 48 h. (In general: Cellular ATP, detected with luciferase, serves as a proxy for viable cell number.)
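Wherever AC50 cell viability (CellTiter-Glo) is given: HCT116 colorectal carcinoma cells screened at five concentrations per compound, luminescent viability scaled between DMSO wells and empty wells on each plate, curves fitted per compound.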
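Wherever efficacy (fitted maximal change in viability relative to DMSO control) is given: Luminescence-based viability readout, five doses per compound, normalized against on-plate DMSO and empty-well controls, followed by dose-response curve fitting for every drug.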

On to `c1cc(-c2cnn3cc(-c4ccc(OCCN5CCCCC5)cc4)cnc23)ccn1` [Dorsomorphin], for which, in the assay with HCT116 [1], the efficacy was -82.7%. Also, in the assay on HCT116 [2], the AC50 cell viability is 4.68 µM.
On to `CN1CCN(CC1)C2=CC3=C([NH]C(=N3)C/4=C(\N)C5=C(F)C=CC=C5NC4=O)C=C2` [Dovitinib], for which the efficacy in the assay on HCT116 [1] is -106%. In the assay with HCT116 [2], this compound displayed an AC50 cell viability of 8.33 µM.
Taken in the same sequence, the figures for `C=C1/C(=C\C=C2/CCC[C@]3(C)[C@@H]([C@H](C)/C=C/[C@H](C)C(C)C)CC[C@@H]23)C[C@@H](O)C[C@@H]1O` [Doxercalciferol] were -85.4% and 23.5 µM.
For `C[C@H]1O[C@H]([C@H](O)[C@@H]1O)N2\C=C(F)/C(=O)NC2=O` [Doxifluridine], in that order: -68.1% and 7.42 µM.
Taken in the same sequence, the figures for `COc1cccc2c1C(=O)c1c(O)c3c(c(O)c1C2=O)C[C@@](O)(C(=O)CO)C[C@@H]3O[C@H]1C[C@H](N)[C@H](O)[C@H](C)O1` [Doxorubicin] were -75.3% and 0.372 µM.
`CCCCc1oc2ccc(N[S+](C)(=O)[O-])cc2c1C(=O)c1ccc(OCCCN(CCCC)CCCC)cc1` [Dronedarone hydrochloride]: the efficacy with HCT116 [1] is -102%. Also, the AC50 cell viability with HCT116 [2] is 8.33 µM.
For `Cc1cc(Cl)ccc1OCCCC(=O)NO` [Droxinostat], in that order: -57.1% and 20.9 µM.
Regarding `C[C@H](NC1=C2N=C[NH]C2=NC=N1)C/3=C/C4=C(C(=CC=C4)Cl)C(=O)N3C5=CC=CC=C5` [Duvelisib], the efficacy in the assay with HCT116 [1] is -72%. In the assay on HCT116 [2], this compound registered an AC50 cell viability of 18.6 µM.
As to `CCOc1cc2c(c(F)c1OCC)C(=N)N(CC(=O)c1cc(N3CCOCC3)c(OC)c(C(C)(C)C)c1)C2` [E5555], the efficacy with HCT116 [1] is -77%. The compound also gave an AC50 cell viability in the assay on HCT116 [2] of 7.42 µM.
As to `COc1ccc([S+](=O)([O-])Nc2cccnc2Nc2ccc(O)cc2)cc1` [E-7010], the efficacy in the assay on HCT116 [1] was -63.2%. In the assay with HCT116 [2], the AC50 cell viability came to 0.59 µM.
Taken in the same sequence, the figures for `Cc1ccc(N[S+](=O)([O-])c2cccc(C#N)c2)c2[nH]cc(C#N)c12` [E-7820] were -53.2% and 0.417 µM.
Take `Cc1ccccc1C(=O)c1ccc(Nc2ccc(Br)cc2N)cc1Cl` [EO-1428]: the efficacy in the assay on HCT116 [1] was -75.8%. Also, in the assay on HCT116 [2], the AC50 cell viability is 20.9 µM.
As to `CS[C@H]1SC[C@@H]2C(=O)N(C)[C@H](C(C)C)C(=O)OC[C@H](NC(=O)c3cnc4ccccc4n3)C(=O)N[C@H](C)C(=O)N(C)[C@H]1C(=O)N(C)[C@H](C(C)C)C(=O)OC[C@H](NC(=O)c1cnc3ccccc3n1)C(=O)N[C@H](C)C(=O)N2C` [Echinomycin], the efficacy in the assay with HCT116 [1] is -72.6%. The compound further yielded an AC50 cell viability in the assay with HCT116 [2] of 0.00372 µM.
Taken in the same sequence, the figures for `Clc1ccc(COC(Cn2ccnc2)c2ccc(Cl)cc2Cl)cc1` (stereo not drawn) [Econazole nitrate] were -83.5% and 20.9 µM.
For `CC1(C)C(N(O)C(=O)Nc2ccc(Cl)cc2)N(c2ccc(Cl)cc2)C(=O)N1CC(=O)N/N=C/C=C/c1ccc([N+](=O)[O-])o1` (stereo not drawn) [Eeyarestatin I], in the assay with HCT116 [1], the efficacy is -89.8%. For the same compound, the AC50 cell viability in the assay on HCT116 [2] was 8.33 µM.
For `O=C1Nc2ccc(Cl)cc2[C@@](C#CC2CC2)(C(F)(F)F)O1` [Efavirenz], in that order: -97.1% and 26.3 µM.
Regarding `CCNCCc1ccc(CN(CC)c2cc(OC)ccc2[C@@H]2CCc3cc(O)ccc3C2)cc1` [Elacestrant], the efficacy in the assay on HCT116 [1] is -96.5%. Moreover, in the assay on HCT116 [2], the AC50 cell viability was determined as 7.42 µM.
`CSc1ccc(C(=O)/C=C/c2cc(C)c(OC(C)(C)C(=O)O)c(C)c2)cc1` [Elafibranor]: the efficacy in the assay on HCT116 [1] is -75.5%. This compound yielded an AC50 cell viability in the assay with HCT116 [2] of 30.3 µM.
Taken in the same sequence, the figures for `NC(=O)/C(=C/n1cnc(-c2cc(C(F)(F)F)cc(C(F)(F)F)c2)n1)c1cncnc1` [Eltanexor] were -78.9% and 0.295 µM.
Turning to `CC[C@H]1CN2CCc3cc(OC)c(OC)cc3[C@@H]2C[C@@H]1C[C@H]1NCCc2cc(OC)c(OC)cc21` [Emetine], in the assay on HCT116 [1], the efficacy was -73.6%. The compound also displayed an AC50 cell viability in the assay with HCT116 [2] of 0.0833 µM.
Taken in the same sequence, the figures for `C[C@H](NC(=O)C(=O)Nc1ccccc1C(C)(C)C)C(=O)N[C@@H](CC(=O)O)C(=O)COc1c(F)c(F)cc(F)c1F` [Emricasan] were -89.4% and 13.2 µM.
With `CC(C)(O)CNc1nc(Nc2ccnc(C(F)(F)F)c2)nc(-c2cccc(C(F)(F)F)n2)n1` [Enasidenib], in the assay with HCT116 [1], the efficacy was -71.3%. Also, the AC50 cell viability with HCT116 [2] amounted to 18.6 µM.
As for `COC(=O)N[C@@H](C)CNc1nccc(-c2cn(C(C)C)nc2-c2cc(Cl)cc(N[S+](C)(=O)[O-])c2F)n1` [Encorafenib], the efficacy with HCT116 [1] is -52.7%. The same compound had an AC50 cell viability with HCT116 [2] of 4.17 µM.
For `Nc1ccccc1NC(=O)c1ccc(CNC(=O)OCc2cccnc2)cc1` [Entinostat], in that order: -83.4% and 2.95 µM.
